Reference: patent publication US20240049707A1, “PESTICIDE COMPOSITIONS OF LICOCHALCONE C” (METABOLIC INSIGHTS LTD., priority 2020, published 2024)

Key:
[1] = test system: Pseudomonas syringae; assay: Microplate based screening of bioactivity against Pseudomonas syringae; type: cell-based; conditions: 10 μl of 250 ppm solution + 40 μl inoculum, activity grade x repeats x days of activity/168 x 100
Experimental: Pseudomonas Suspension Preparation: • 1) Grow Pseudomonas on LBA plates at 28° C. for 2 days to get a single colony • 2) Transfer a single colony using a sterile toothpick into a 50 ml sterile tube containing 5 ml LB and grow for 24 at 28° C. and 150 RPM • 3) Chill the tube in the fridge for 1 h • 4) Add 7.5 ml of fridge cold, sterile, glycerol solution to the tube—to get 60% glycerol solution • 5) Mix well but gently to get perfect mixing—use vortex at 1000 RPM • 6) Aliquot 100 μl of bacteria suspension in 60% glycerol into 1.5 ml tubes—each aliquot should be enough for screening of 10 microplates • 7) Store the bacteria suspension in 60% glycerol at −20° C.
Pseudomonas Suspension Preparation for Bioactivity Screening Experiment: • 1) Take 1.5 ml tube with 100 μl frozen Pseudomonas suspension from the freezer and thaw it on ice • 2) Prepare in the hood 50 ml tubes with 40 ml fridge cold LB • 3) Mix 40 μl of bacteria suspension with 40 ml fridge cold LB in a 50 ml tube. This amount is enough for activity screening of 10 microplates • 4) Use this suspension for bioactivity screening experiments […]

[2] = test system: Pythium aphanidermatum; assay: Microplate based screening of bioactivity against Pythium aphanidermatum; type: cell-based; conditions: 10 μl of 250 ppm solution + 40 μl inoculum, activity grade x repeats x days of activity/252 x 100
Experimental: Grow Pythium aphanidermatum on SCH in 90 mm petri plates to get sporulating hyphae. Each plate will produce 50 ml of zoospores suspension which will be enough for bioactivity screening for ten 96-well plates.
Add the same volume (as the suspension) sterile fridge cold 2:PDBC to get 500-2000 spores/ml inoculum. This dilution will result in the amount of 25-100 zoospores in each well. […]
Screening of Plates: • 1) Read out the plate at […]: 3d, 7d, 14d and 21d following the assay start • 2) Calculate the difference of absorbance between each readout and the readout at zero time • 3) Calculate the percentage of growth inhibition of each well at each time point. […]

COc1c(/C=C/C(=O)c2ccc(O)cc2)ccc(O)c1CC=C(C)C [Licochalcone C, (E)-3-[4-hydroxy-2-methoxy-3-(3-methylbut-2-enyl)phenyl]-1-(4-hydroxyphenyl)prop-2-en-1-one]
Relative Activity value (%) [1]: 50% | Relative Activity value (%) [2]: 100%
